Read-outs that look alike come from different tables or passages of the source.
Tests used:
E. coli SSO [1] = experiment: T-RT retention of sfGFP mRNA extracted from SSO in vivo translation experiments; format: cell-based; parameters: unit of the concentration uncertain; details: for T-RT retention: mRNA sfGFP(GXT), n = 3
Protocol: (§1) Reverse transcription. The reverse transcription reactions were conducted according to the manufacturer's instructions of each reverse transcriptase with the following modifications. In all reverse transcription reactions, 1 μg mRNA or 20 ng tRNA, 0.5 mM dNTP and 0.2 mM dNaMTP or dTPT3TP per 20 μL reaction were used unless stated otherwise. For SuperScript III (18080044, ThermoFisher), reactions were incubated at 55° C. for 45 min, inactivated at 70° C. for 15 min, followed by RNase H (M0297S, New England Biolabs, (NEB)) and RNase A (R1253, ThermoFisher) digestion. For SuperScript IV (18090010, ThermoFisher), reactions were incubated at 55° C. for 20 min, inactivated at 80° C. for 10 min, followed by RNase H, RNase A, and Proteinase K (P8107S, New England Biolabs, (NEB)) digestion. For AMV reverse transcriptase (M0277S, New England Biolabs, (NEB)), reactions were incubated at 42° C. for 60 min, inactivated at 80° C. for 5 min, followed by RNase H and RNase A digestion. After digestion, 10 μL of each reaction mixture was denatured with RNA loading dye (B0363S, New England Biolabs, (NEB)) and subjected to 10% denaturing polyacrylamide gel electrophoresis with 8 M urea (CAS 57-13-6, Sigma Aldrich) for cDNA detection. The other 10 μL of the reaction mixture was purified using a commercial RNA purification kit (D7011, Zymo Research; Irvine, CA) and the product cDNA was quantified using Qubit.
(§2) SSO in vivo translation. A 2 mL overnight culture of YZ3+pGEX-MbPylRS TetR cells in 2×YT (Y2377, Sigma Aldrich) supplemented with 50 mM potassium phosphate (CAS 7778-77-0, Sigma Aldrich), 5 μg/mL chloramphenicol (CAS 56-75-7, Sigma Aldrich) and 100 μg/mL carbenicillin (C1613, Sigma Aldrich) (herein afterward referred to in this section as “media”) was diluted to an OD600 of 0.03 in the same media, and grown to an OD600 of 0.3 to 0.4. The culture was rapidly cooled in an ice water bath for 5 min with shaking, and then pelleted at 3,200×g for 10 min. Cells were next washed twice with one culture volume of pre-chilled autoclaved Milli-Q H2O. Cells were then resuspended in additional chilled H2O, to an OD600 of 50-60. For each sample tested, 50 μL of the resulting electrocompetent cells were combined with 0.5 ng of Golden Gate assembled plasmid containing the UBP embedded within the sfGFP and tRNA^Pyl genes and then transferred to a pre-chilled electroporation cuvette (0.2 cm gap). Cells were electroporated (Gene Pulser II; Bio-Rad) according to the manufacturer's instructions for bacteria ([…], 2.5 μF, and 200Ω resistor), then immediately diluted with 950 μL of pre-warmed media. 10 μL of this dilution was then diluted with pre-warmed media to a final volume of 50 μL, supplemented with […] and 10 μM dTPT3TP. The transformation was allowed to recover at 37° C. for 1 h. The recovery culture was plated on solid media supplemented with 50 μg/mL zeocin (R25001, ThermoFisher), 150 μM dNaMTP, 10 μM dTPT3TP, and 2% w/v agar, then allowed to grow at 37° C. overnight.
(§3) Single colonies were isolated and used to inoculate 300 μL liquid media supplemented with 50 μg/mL zeocin (herein afterward referred to in this section as “growth media”) and provided 150 μM dNaMTP, and 10 μM dTPT3TP, then monitored for cell growth via OD600 using an Envision 2103 Multilabel Plate Reader (Perkin Elmer) with a 590/20 nm filter. Cells were collected at an OD600 of ˜0.7, and then an aliquot (100 μL) was subjected to miniprep. Isolated plasmids were subjected to biotin shift assay to determine UBP retention. […] At an OD600 of cultures were supplemented with 250 μM NaMTP and 30 μM TPT3TP unless stated otherwise, as well as 10 mM of the ncAA N6-(2-azidoethoxy)-carbonyl-L-lysine (AzK). The culture was then grown for and additional 20 min before adding IPTG (CAS 367-93-1, Sigma Aldrich) to a concentration of 1 mM and grown for 1 h to induce the transcription of the T7 RNA polymerase, the tRNA^Pyl, and the PylRS. […]

E. coli SSO [2] = experiment: T-RT retention of M. mazei tRNA extracted from SSO in vivo translation experiments; format: cell-based; parameters: unit of the concentration uncertain; details: for T-RT retention: tRNA(AYC), n = 3
Protocol: as §1, §2, §3

[3] = tested on: SuperScript III reverse transcriptase; details: 10 ng RNA per reaction, replicate 1, unnatural dNTP supplied, 55 C

COc1cc2ccccc2cc1[C@@H]1O[C@H](COP(=O)(O)OP(=O)(O)OP(=O)(O)O)[C@@H](O)[C@H]1O [NaMTP]
retention of NaM in the mRNA as NaMTP concentration was decreased (E. coli SSO [1]; TPT3TP held constant at 250 µM, until NaMTP dropped to less than 50 μM): remained high | T-RT retention (E. coli SSO [1]; NaMTP concentration 12.5 µM): 0.70 | T-RT retention (E. coli SSO [1]; NaMTP concentration 25 µM): 0.81 | T-RT retention (E. coli SSO [1]; NaMTP concentration 50 µM): 0.88 | T-RT retention (E. coli SSO [1]; NaMTP concentration 125 µM): 0.94 | T-RT retention (E. coli SSO [1]; NaMTP concentration 250 µM): 0.93

O=P(O)(O)OP(=O)(O)OP(=O)(O)OC[C@H]1O[C@@H](n2ccc3ccsc3c2=S)[C@H](O)[C@@H]1O [TPT3TP]
retention of TPT3 in the tRNA as TPT3TP concentration was varied (E. coli SSO [2]; NaMTP held constant at 250 (unit uncertain), even at the lowest concentration examined (10 μM)): remained high | T-RT retention (E. coli SSO [2]; TPT3TP concentration 12.5 (unit uncertain)): 0.95 | T-RT retention (E. coli SSO [2]; TPT3TP concentration 25 (unit uncertain)): 0.97 | T-RT retention (E. coli SSO [2]; TPT3TP concentration 50 (unit uncertain)): 0.98 | T-RT retention (E. coli SSO [2]; TPT3TP concentration 125 (unit uncertain)): 0.95 | T-RT retention (E. coli SSO [2]; TPT3TP concentration 250 (unit uncertain)): 0.94

M. mazei tRNA with NaM anticodon
activity (full-length product ratio) ([3]; NaM ribonucleotide at second nucleotide of anticodon, 0.8789 at 500 ng): 0.973

M. mazei tRNA with TPT3 anticodon
activity (full-length product ratio) ([3]; TPT3 ribonucleotide at second nucleotide of anticodon, 0.4423 at 500 ng): 0.917
